Here are results for nine molecules from patent publication US9301910B2, “Fragrant formulations, methods of manufacture thereof and articles comprising the same” (GFBiochemicals Limited, priority 2010, dated 2016).

Common to all, as to type: physicochemical
Data set [1] can be described thus: Miscibility of alkyl ketal esters with water. The settings on record: for miscible in water to the extent of: parts of ester, balance to 100 parts is water (1 per 99, 2.5 in 97.5, 5 per 95); for miscibility with water: miscibility assessed at 25° C unless stated otherwise. As for the experimental part: (§1) Unless stated otherwise, miscibility is assessed at 25° C.

Data set [2] is described as follows: Compatibility between waxes and alkyl ketal esters (melt, cool to room temperature). As for the experimental part:
Compatibility between various waxes and the alkyl ketal esters was first determined as detailed below. Table 10 below details the fragrant formulations for 10 different candles (Examples 116-125) that contain the fragrant composition.
Beeswax and Et-LGK were weighed into a vessel in a 50/50 weight ratio and heated to 80° C. to form a uniform molten mixture.
Gulf Wax brand of household paraffin wax for canning and candlemaking (distributed by Royal Oak Enterprises) was used in these experiments.

Data set [3] in a line: Dissolution of vanillin in alkyl ketal esters. As for the experimental part: […] […] Dissolution is much quicker at 80° C.
Vanillin was dissolved at 25% solids by weight in Et-LPK with slight heating (80° C.).

A short description of data set [4]: Miscibility of alkyl ketal esters with organic compounds. The settings on record: parts of the organic compound in 80 parts of the alkyl ketal ester; organic compounds as listed in the block. Here is the method: as §1
The nature of data set [5]: Compatibility between waxes and alkyl ketal esters (melt, cool to room temperature). The settings on record: 25/75 weight ratio of Et-LGK to beeswax, 80° C, cooled.
The mark [6] stands for this setting: NatureWax C-3 / ester 90/10 weight ratio, 80° C, cooled.
The mark [7] stands for this setting: beeswax / ester 50/50 weight ratio, melted at 80° C, cooled to room temperature.
[8] abbreviates: candelilla wax / ester 50/50 weight ratio, 120° C, cooled.
[9] abbreviates: carnauba wax / ester 50/50 weight ratio, 120° C, cooled.
Where [10] appears, read: paraffin wax / ester 75/25 weight ratio, 80° C, cooled to room temperature.
Where [11] appears, read: NatureWax C-1 / ester 90/10 weight ratio, 80° C, cooled.
Setting [12] is: NatureWax P-1 / ester 75/25 weight ratio, 80° C, cooled.
[13] abbreviates: paraffin wax / ester 50/50 weight ratio, 80° C, cooled to room temperature.
The mark [14] stands for this setting: stearic acid / ester 50/50 weight ratio, 80° C, cooled to room temperature.
The mark [15] stands for this setting: vanillin at 10% solids by weight in the ester, room temperature.

Turning to `CCCCOC(=O)CCC1(C)OCC(CO)O1` (stereo not shown) [Bu-LGK, glycerol ketal of butyl levulinate], the “miscible in water to the extent of” value in data set [1] was found to be 1 parts. The layers upon cooling entry in data set [2] (NatureWax C-1 / ester 50/50 weight ratio, 80° C, cooled) is on record as “single homogenous wax layer”; in data set [2] (setting [6]) it was “single homogenous wax layer”; in data set [2] (NatureWax P-1 / ester 50/50 weight ratio, 80° C, cooled) it was “single homogenous wax layer”; in data set [2] (setting [7]) it was “single homogenous wax layer”; in data set [2] (setting [8]), “single homogenous wax layer”; in data set [2] (setting [9]), “single homogenous wax layer”. In data set [2] (setting [10]), the layers upon cooling entry is reported as “Two layers formed”. Also, the dissolution of vanillin entry in data set [3] (vanillin at 25% solids by weight in the ester, room temperature) is “initially appeared to be insoluble but over the course of five days, the vanillin dissolved, resulting in a clear uniform mixture”. Moreover, the “dissolves or is miscible with organic compounds to the extent of” value (from here on “dissolves or is miscible”) in data set [4] is listed as “at least 20 parts”.

Take `CCOC(=O)CC1(C)OCC(CO)O1` (stereo not shown) [Et-AcAcGK]: the miscibility with water result in data set [1] is “miscible with water in all proportions”.

With `CCOC(=O)CCC1(C)OCC(CO)O1` (stereo not shown) [Et-LGK, glycerol ketal of ethyl levulinate], the miscibility with water entry in data set [1] is “miscible in water in all proportions”. Besides, the layers upon cooling entry is listed as “single homogenous wax layer” in data set [2] (25/75 Et-LGK to stearic acid by weight, 80° C, cooled); “single homogenous wax layer” in data set [2] (setting [11]); “single homogenous soft wax layer” in data set [2] (setting [6]); “single homogenous wax layer” in data set [2] (setting [12]); “Two layers formed” in data set [2] (setting [7]); “Two layers formed” in data set [2] (candelilla wax / ester 75/25 weight ratio, 120° C, cooled to room temperature). In addition, the layers upon cooling result is recorded as “single homogenous wax layer” in data set [2] (candelilla wax / ester 90/10 weight ratio, 120° C, cooled); “Two layers formed” in data set [2] (setting [9]); “single homogenous wax layer” in data set [2] (carnauba wax / ester 75/25 weight ratio, 120° C, cooled); “Two layers formed” in data set [2] (setting [13]); “single homogenous wax layer” in data set [2] (paraffin wax / ester 90/10 weight ratio, 80° C, cooled to room temperature); “Two layers formed” in data set [2] (setting [14]). In addition, in data set [5], the layers upon cooling entry is “single homogenous wax layer”. The dissolution of vanillin result in data set [3] (setting [15]) is on record as “clear uniform mixture”. The “dissolves or is miscible” value in data set [4] is listed as “at least 20 parts”.

As for `CCOC(=O)CCC1(C)OCC(C)O1` (stereo not shown) [Et-LPK, propylene glycol ketal of ethyl levulinate], the “miscible in water to the extent of” value in data set [1] is 2.5 parts. In addition, the layers upon cooling result in data set [2] (setting [11]), in data set [2] (setting [6]), in data set [2] (setting [12]), in data set [2] (setting [7]), in data set [2] (setting [8]) and in data set [2] (setting [9]) was “single homogenous wax layer” in each case. For the same molecule, the layers upon cooling entry in data set [2] (setting [13]), in data set [2] (setting [10]) and in data set [2] (setting [14]) was “single homogenous wax layer” throughout. Also, the dissolution of vanillin entry in data set [3] (setting [15]) is “clear uniform mixture”; in data set [3] (vanillin at 25% solids by weight in the ester, slight heating (80° C)) it was “clear uniform solutions hot and stayed as a clear uniform mixture at room temperature initially”. The “precipitation of vanillin on standing” value in data set [3] (vanillin at 25% solids by weight, dissolved at 80° C, then room temperature) is on record as “Within an hour, signs of precipitation at room temperature appeared”. Besides, the “dissolves or is miscible” value in data set [4] is “at least 20 parts”.

`COC(=O)CC1(C)OCC(CO)O1` (stereo not shown) [Me-AcAcGK]: the miscibility with water entry in data set [1] is listed as “miscible with water in all proportions”.

With `CCOC(=O)CCC1(C)OCCO1` [ethyl-LEK], the “miscible in water to the extent of” value in data set [1] turned out to be 5 parts.

For `COC(=O)CCC1(C)OCC(CO)O1` (stereo not shown) [methyl-LGK], the miscibility with water result in data set [1] was “miscible with water in all proportions”.

Consider `CCCCOC(=O)CCC1(C)OCC(C)O1` (stereo not shown) [n-butyl-LPK], for which the “dissolves or is miscible” value in data set [4] was “at least 20 parts”.

In the case of `CCCOC(=O)CCC1(C)OCC(CO)O1` (stereo not shown) [n-propyl-LGK], in data set [1], the “miscible in water to the extent of” value is 1 parts.
